Our source for the IC50 values is BindingDB's records for patent US20230322769 (Jiangsu Chia Tai Fenghai Pharmaceutical, 2023).

The structures appear in SMILES notation. Where “and” joins values, the source holds several entries; their conditions need not be identical. Equal values may be shown once.

The term IC50 denotes the point on the concentration scale where inhibition reaches its midpoint. A low value points to higher potency.

The target of data set [1] is Proto-oncogene tyrosine-protein kinase receptor Ret [V804M] (Human, UniProt P07949, V804M). As to the kind of experiment: Inhibition of RET Family Kinases Activity.
Proto-oncogene tyrosine-protein kinase receptor Ret [V804M], sequence (P07949 29-1114 V804M limits assumed): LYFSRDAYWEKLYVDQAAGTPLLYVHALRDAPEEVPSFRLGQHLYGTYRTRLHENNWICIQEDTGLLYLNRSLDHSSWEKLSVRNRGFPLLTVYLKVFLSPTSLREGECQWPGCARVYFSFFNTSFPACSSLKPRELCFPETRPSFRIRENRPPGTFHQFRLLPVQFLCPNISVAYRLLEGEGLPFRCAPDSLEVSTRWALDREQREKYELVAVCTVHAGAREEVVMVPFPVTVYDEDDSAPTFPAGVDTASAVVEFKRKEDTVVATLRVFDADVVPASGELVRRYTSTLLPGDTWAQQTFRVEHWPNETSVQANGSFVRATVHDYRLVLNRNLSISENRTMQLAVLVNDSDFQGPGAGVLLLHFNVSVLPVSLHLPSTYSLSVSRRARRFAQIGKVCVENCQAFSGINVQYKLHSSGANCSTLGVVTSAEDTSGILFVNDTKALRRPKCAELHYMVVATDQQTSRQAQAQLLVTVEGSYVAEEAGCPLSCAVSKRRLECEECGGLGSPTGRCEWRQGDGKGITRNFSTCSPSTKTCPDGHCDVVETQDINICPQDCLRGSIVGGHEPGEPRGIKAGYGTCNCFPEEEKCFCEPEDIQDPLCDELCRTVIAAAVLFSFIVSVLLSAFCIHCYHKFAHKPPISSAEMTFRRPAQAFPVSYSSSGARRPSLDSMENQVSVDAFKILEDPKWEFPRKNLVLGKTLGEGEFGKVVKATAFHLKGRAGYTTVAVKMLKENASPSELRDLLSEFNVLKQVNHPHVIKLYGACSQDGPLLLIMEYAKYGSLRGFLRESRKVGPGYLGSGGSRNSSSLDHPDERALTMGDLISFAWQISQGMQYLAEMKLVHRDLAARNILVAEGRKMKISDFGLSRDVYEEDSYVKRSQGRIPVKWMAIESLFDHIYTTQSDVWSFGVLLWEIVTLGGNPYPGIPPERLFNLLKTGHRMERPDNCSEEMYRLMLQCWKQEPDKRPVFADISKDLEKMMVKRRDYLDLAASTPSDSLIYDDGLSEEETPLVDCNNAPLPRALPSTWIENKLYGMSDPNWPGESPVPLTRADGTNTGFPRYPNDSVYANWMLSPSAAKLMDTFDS
Data set [2] has as its target Proto-oncogene tyrosine-protein kinase receptor Ret (Homo sapiens, UniProt P07949). As to the kind of experiment: Inhibition of RET Family Kinases Activity.
Data set [3] deals with Proto-oncogene tyrosine-protein kinase receptor Ret [M918T] (Homo sapiens, UniProt P07949, M918T). As to the kind of experiment: Inhibition of RET Family Kinases Activity.
Proto-oncogene tyrosine-protein kinase receptor Ret [M918T], sequence (P07949 29-1114 M918T limits assumed): as the sequence (P07949 29-1114 V804M limits assumed) above, with M776V, M890T counted along it
Data set [4] concerns the target Potassium voltage-gated channel subfamily H member 2 (Homo sapiens, UniProt Q12809). The experiment in a line: Inhibition of hERG Potassium Channel. Here is the method: Whole-cell patch-clamp recording was carried out. […] This procedure was repeated every 20 seconds. The hERG tail current was a pure hERG current.
(The hERG channel carries a current that helps repolarise heart muscle cells.)

The target in data set [5] is Vascular endothelial growth factor receptor 2 (Homo sapiens, UniProt P35968). As to the kind of experiment: Inhibition of RET Family Kinases Activity.
Vascular endothelial growth factor receptor 2, sequence (P35968 whole entry, the tested form may be a part): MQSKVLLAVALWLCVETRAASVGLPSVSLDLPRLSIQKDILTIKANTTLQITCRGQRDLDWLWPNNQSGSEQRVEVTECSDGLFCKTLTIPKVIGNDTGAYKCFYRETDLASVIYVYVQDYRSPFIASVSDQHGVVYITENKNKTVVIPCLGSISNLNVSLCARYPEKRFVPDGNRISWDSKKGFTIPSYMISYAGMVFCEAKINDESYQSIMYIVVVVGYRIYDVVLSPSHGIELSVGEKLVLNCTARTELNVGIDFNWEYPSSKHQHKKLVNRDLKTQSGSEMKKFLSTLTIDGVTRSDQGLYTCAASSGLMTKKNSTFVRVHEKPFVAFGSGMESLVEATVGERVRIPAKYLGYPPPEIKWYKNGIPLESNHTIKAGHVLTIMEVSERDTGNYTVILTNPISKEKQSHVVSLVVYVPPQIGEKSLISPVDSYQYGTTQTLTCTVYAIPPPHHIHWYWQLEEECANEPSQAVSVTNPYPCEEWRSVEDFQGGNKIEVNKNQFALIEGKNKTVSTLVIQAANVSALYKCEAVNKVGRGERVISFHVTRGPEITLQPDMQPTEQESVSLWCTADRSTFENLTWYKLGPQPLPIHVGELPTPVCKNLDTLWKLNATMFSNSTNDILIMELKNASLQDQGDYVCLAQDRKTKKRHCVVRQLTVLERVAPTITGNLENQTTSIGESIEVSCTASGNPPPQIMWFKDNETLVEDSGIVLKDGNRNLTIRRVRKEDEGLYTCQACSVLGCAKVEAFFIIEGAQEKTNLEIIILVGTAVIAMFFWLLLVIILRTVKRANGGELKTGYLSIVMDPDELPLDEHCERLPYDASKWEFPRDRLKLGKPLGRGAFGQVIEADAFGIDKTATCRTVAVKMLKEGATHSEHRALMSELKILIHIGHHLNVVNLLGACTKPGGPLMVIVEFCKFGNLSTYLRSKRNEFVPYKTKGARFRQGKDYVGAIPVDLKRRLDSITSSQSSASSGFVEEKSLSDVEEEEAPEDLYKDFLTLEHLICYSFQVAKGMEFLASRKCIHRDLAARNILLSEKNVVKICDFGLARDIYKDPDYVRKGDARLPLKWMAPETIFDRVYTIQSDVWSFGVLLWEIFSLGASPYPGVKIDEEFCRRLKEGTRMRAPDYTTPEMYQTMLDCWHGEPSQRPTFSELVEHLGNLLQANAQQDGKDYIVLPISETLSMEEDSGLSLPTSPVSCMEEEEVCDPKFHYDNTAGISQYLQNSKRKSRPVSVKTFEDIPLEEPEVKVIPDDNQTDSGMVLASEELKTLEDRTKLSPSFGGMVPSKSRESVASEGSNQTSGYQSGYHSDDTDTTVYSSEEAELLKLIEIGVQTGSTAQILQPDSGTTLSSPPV
Data set [6] has as its target Coiled-coil domain-containing protein 6/Proto-oncogene tyrosine-protein kinase receptor Ret (Homo sapiens, UniProt P07949). As to the kind of experiment: Inhibition of RET Family Kinases Activity.

Proto-oncogene tyrosine-protein kinase receptor Ret, sequence (P07949 whole entry): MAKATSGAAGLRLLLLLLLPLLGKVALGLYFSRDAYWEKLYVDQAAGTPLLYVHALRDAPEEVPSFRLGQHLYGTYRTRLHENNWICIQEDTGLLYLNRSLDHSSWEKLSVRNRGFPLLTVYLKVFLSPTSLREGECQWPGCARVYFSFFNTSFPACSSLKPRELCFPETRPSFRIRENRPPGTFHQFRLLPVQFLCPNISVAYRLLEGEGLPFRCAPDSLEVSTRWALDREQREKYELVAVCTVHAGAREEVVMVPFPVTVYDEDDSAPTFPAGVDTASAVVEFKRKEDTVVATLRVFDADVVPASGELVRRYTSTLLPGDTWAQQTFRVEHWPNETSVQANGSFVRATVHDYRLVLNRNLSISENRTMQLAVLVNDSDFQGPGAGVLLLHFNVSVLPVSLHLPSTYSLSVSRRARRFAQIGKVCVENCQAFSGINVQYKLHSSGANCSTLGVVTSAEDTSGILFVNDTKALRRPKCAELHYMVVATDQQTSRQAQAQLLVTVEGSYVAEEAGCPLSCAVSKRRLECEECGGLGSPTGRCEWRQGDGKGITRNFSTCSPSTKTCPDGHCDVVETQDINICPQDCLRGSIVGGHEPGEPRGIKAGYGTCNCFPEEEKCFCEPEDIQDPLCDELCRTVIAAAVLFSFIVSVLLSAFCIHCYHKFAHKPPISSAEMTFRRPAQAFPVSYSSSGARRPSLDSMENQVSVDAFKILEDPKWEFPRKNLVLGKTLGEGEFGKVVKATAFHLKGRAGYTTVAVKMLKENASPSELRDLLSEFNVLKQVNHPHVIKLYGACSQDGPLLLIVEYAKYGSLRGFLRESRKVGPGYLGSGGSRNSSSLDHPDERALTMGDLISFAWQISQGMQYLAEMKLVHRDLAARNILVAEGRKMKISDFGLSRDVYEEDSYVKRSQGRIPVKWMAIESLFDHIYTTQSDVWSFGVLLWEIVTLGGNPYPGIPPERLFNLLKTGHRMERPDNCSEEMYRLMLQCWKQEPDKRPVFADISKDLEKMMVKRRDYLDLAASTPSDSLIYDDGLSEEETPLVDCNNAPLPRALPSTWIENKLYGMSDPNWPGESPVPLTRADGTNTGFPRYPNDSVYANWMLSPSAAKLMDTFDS
Coiled-coil domain-containing protein 6/Proto-oncogene tyrosine-protein kinase receptor Ret, sequence (P07949 whole entry, the tested form may be a part): as the sequence (P07949 whole entry) above
Coiled-coil domain-containing protein 6/Proto-oncogene tyrosine-protein kinase receptor Ret, sequence (Q16204 whole entry, further chain, the tested form may be a part): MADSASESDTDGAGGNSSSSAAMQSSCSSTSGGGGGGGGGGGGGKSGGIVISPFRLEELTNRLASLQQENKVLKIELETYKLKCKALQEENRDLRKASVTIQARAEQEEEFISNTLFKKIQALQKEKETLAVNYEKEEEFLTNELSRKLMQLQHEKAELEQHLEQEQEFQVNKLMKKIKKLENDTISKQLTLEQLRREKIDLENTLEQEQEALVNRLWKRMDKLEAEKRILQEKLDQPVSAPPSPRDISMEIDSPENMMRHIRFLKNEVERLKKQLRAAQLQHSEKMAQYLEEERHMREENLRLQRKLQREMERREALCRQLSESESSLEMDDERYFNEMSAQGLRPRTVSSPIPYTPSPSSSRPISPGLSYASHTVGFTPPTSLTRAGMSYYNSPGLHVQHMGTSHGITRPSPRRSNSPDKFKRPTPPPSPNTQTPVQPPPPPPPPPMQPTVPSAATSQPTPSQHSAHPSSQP

`COc1ccc(CN2CCN(c3nc(-c4cc(-c5cnn(C)c5)cn5ncc(C#N)c45)cs3)CC2)cn1` [US20230322769, Compound 39]: the IC50 in data set [1] is 860 nM; in data set [2], 98.3 nM; in data set [3], 326 nM.

On to `COc1ccc(CN2CCCN(c3ccc(-c4cc(-c5cc6n(n5)CCC6)cn5ncc(C#N)c45)cn3)CC2)cn1` [US20230322769, Compound 70], for which the IC50 is 4740 nM in data set [4]; 111 nM in data set [1]; 26.6 nM in data set [2]; 387 nM in data set [5]; 42.8 nM in data set [3]; 30.7 nM in data set [6].

For `COc1ccc(CN2C3CC2CN(c2ccc(-c4cc(N(CC5CC5)CC(C)(C)O)cn5ncc(C#N)c45)cn2)C3)cn1` [US20230322769, Compound 81], the figures for the IC50 in data set [2] and in data set [5] were 193 nM and 612 nM, respectively.

The compound `COc1ccc(CN2C3CC2CN(c2ccc(-c4cc(N5CCOC[C@@H]5C)cn5ncc(C#N)c45)cn2)C3)cn1` [US20230322769, Compound 84] gave an IC50 in data set [2] of 24.8 nM.

For the compound `COc1ccc(CN2C3CC2CN(c2ccc(-c4cc(N5CCCC(O)C5)cn5ncc(C#N)c45)cn2)C3)cn1` (stereo unspecified) [US20230322769, Compound 82], the figures for the IC50 in data set [2] and in data set [5] were 10.7 nM and 280 nM, respectively.

Take `COc1ccc(CN2C3CC2CN(c2ccc(-c4cc(N5CCP(C)(=O)CC5)cn5ncc(C#N)c45)cn2)C3)cn1` [US20230322769, Compound 20]: the IC50 in data set [1] came out at 3.23 nM; in data set [2], 4.1 nM; in data set [5], 340 nM; in data set [3] it was 1.45 nM; in data set [6] it was 2.14 nM.

With `COc1ccc(CN2C3CC2CN(c2ccc(-c4cc(N5CC6CC(C5)N6)cn5ncc(C#N)c45)cn2)C3)cn1` [US20230322769, Compound 16], the 50% inhibitory concentration (IC50) in data set [1] was 4.78 nM; in data set [2], 8.4 nM; in data set [5], 406 nM; in data set [3] it was 2.42 nM; in data set [6], 3.65 nM.

With `COc1ccc(CN2C3CC2CN(c2ccc(-c4cc(N5CCOCC5)cn5ncc(C#N)c45)cn2)C3)cn1` [US20230322769, Compound 65], the IC50 in data set [1] was found to be 3.37 nM; in data set [2] it was 1.09 nM; in data set [5], 92.8 nM; in data set [3], 0.92 nM; in data set [6] it was 0.52 nM.

With `COc1ccc(CN2C3CC2CN(c2ccc(-c4cc(-c5cc6n(n5)CCC6)cn5ncc(C#N)c45)cn2)C3)cn1` [US20230322769, Compound 66], the half-inhibitory concentration (IC50) was 4.33 nM and 7.69 nM in data set [1]; 2.24 nM in data set [2]; 4.06 nM in data set [3].

Consider `COc1ccc(CN2C3CC2CN(c2ccc(-c4cc(N5CC(C)(O)C5)cn5ncc(C#N)c45)cn2)C3)cn1` [US20230322769, Compound 86], for which the figures for the IC50 in data set [2] and in data set [5] were 4.56 nM and 71.3 nM, respectively.

In the case of `COc1ccc(CN2C3CC2CN(c2ccc(-c4cc(NCC(C)(C)O)cn5ncc(C#N)c45)cn2)C3)cn1` [US20230322769, Compound 78], the IC50 in data set [1] is 8.23 nM; in data set [2], 1.28 nM; in data set [5], 51.9 nM; in data set [3], 5.47 nM; in data set [6] it was 4.6 nM.

Regarding `COc1ccc(CN2C3CC2CN(c2ccc(-c4cc(N5CCOC[C@H]5C)cn5ncc(C#N)c45)cn2)C3)cn1` [US20230322769, Compound 85], the midpoint of inhibition in data set [2], the IC50, lay at 19 nM.

Consider `COc1ccc(CN2C3CC2CN(c2ccc(-c4cc(N5CCN(C)C(=O)C5)cn5ncc(C#N)c45)cn2)C3)cn1` [US20230322769, Compound 89], for which the IC50 in data set [1] was determined as 4.72 nM; in data set [2] it was 0.674 nM; in data set [5], 157 nM; in data set [3], 1.47 nM; in data set [6], 3.04 nM.

On to `COc1ccc(CN(C)CCN(C)c2ccc(-c3cc(-c4cnn(C)c4)cn4ncc(C#N)c34)cn2)cn1` [US20230322769, Compound 17-a], for which the IC50 worked out at 128 nM in data set [1], 27.9 nM in data set [2], 48.4 nM in data set [3] and 17.2 nM in data set [6].

`COc1ccc(CN2C3CC2CN(c2ccc(-c4cc(N5CCN(C)CC5)cn5ncc(C#N)c45)cn2)C3)cn1` [US20230322769, Compound 94]: the IC50 in data set [5] came to 154 nM; in data set [3], 2.78 nM; in data set [6], 3 nM.

On to `COc1ccc(CN2C3CC2CN(c2ccc(-c4cc(N5CC6(COC6)C5)cn5ncc(C#N)c45)cn2)C3)cn1` [US20230322769, Compound 88], for which the IC50 turned out to be 7.22 nM in data set [2] and 96.9 nM in data set [5].

Consider `COc1ccc(CN2C3CC2CN(c2ccc(-c4cc(N5CCOC(C)C5)cn5ncc(C#N)c45)cn2)C3)cn1` (stereo unspecified) [US20230322769, Compound 83], for which, in data set [2], the IC50 is 15.8 nM.

With `COc1ccc(CN2C3CC2CN(c2ccc(-c4cc(N5CC(C)(C)OC5C5CC5)cn5ncc(C#N)c45)cn2)C3)cn1` (stereo unspecified) [US20230322769, Compound 80], the IC50 in data set [2] came to 21.6 nM; in data set [5], 566 nM.

Consider `COc1ccc(CN2C3CC2CN(c2ccc(-c4cc(N5CC6CC(C5)N6C)cn5ncc(C#N)c45)cn2)C3)cn1` [US20230322769, Compound 17], for which the IC50 in data set [1] came out at 3.82 nM; in data set [2] it was 5.5 nM; in data set [5], 551 nM; in data set [3] it was 1.7 nM.

As to `COc1ccc(C(=O)N2CCN(c3ccc(-c4cc(-c5cc6n(n5)CCC6)cn5ncc(C#N)c45)cn3)CC2)cn1` [US20230322769, Compound 68], the IC50 was found to be 26.3 nM in data set [1]; 12.6 nM in data set [2]; 186 nM in data set [5]; 10.7 nM in data set [3]; 6.01 nM in data set [6].

Consider `COc1ccc(CN2C3CC2CN(c2ccc(-c4cc(N5CCNCC5)cn5ncc(C#N)c45)cn2)C3)cn1` [US20230322769, Compound 96], for which the IC50 in data set [2] is 5.24 nM; in data set [5], 240 nM.

`COc1ccc(CN2CCC(n3cc(-c4cc(-c5cnn(C)c5)cn5ncc(C#N)c45)cn3)CC2)cn1` [US20230322769, Compound 43]: the IC50 in data set [1] worked out at 242 nM; in data set [2], 30.9 nM; in data set [3], 53.1 nM.
